Here are results for 32 compounds from patent publication US9988390B2, “Pyrimidone derivatives and their use in the treatment, amelioration or prevention of a viral disease” (F. Hoffmann-La Roche AG, priority 2015, dated 2018).

One may read the IC50 as the midpoint of a concentration-inhibition curve.

The first experiment concerns influenza A virus (A/WSN/33 NanoLuc reporter virus) in A549 cells. Kind of experiment: microbe, parasite or virus in culture. It is filed as cell-based. The conditions noted are these: A549, 24 h, read-out: IC50 values of viral replication inhibition in a cell-based Luciferase Reporter Assay (LRA). In general terms: A reporter such as luciferase makes a cellular process visible.
On to `CNc1nc(=O)c(O)c2n1[C@@H](C(c1ccccc1)c1ccccc1)CN(C(C)C)C2=O` [Ia-49, (4S)-4-Benzhydryl-9-hydroxy-2-isopropyl-6-(methylamino)-3,4-dihydropyrazino[1,2-c]pyrimidine-1,8-dione], for which the IC50 came to 880 nM. The same measure, in the same setting: under `CCS(=O)(=O)c1nc(=O)c(O)c2n1[C@@H](C(c1ccccc1)c1ccccc1)CN(C(C)C)C2=O` [Ia-39, (4S)-4-Benzhydryl-6-ethylsulfonyl-9-hydroxy-2-isopropyl-3,4-dihydropyrazino[1,2-c]pyrimidine-1,8-dione] stands 470 nM. Take `CC(C)N1C[C@H](C(c2ccccc2)c2ccccc2)n2c(-n3cnnc3)nc(=O)c(O)c2C1=O` [Ia-44, (4S)-4-Benzhydryl-9-hydroxy-2-isopropyl-6-(1,2,4-triazol-4-yl)-3,4-dihydropyrazino[1,2-c]pyrimidine-1,8-dione]: the IC50 was 130 nM. Consider `COc1nc(=O)c(O)c2n1[C@@H](C1c3cccc(F)c3CCc3c(F)cccc31)[C@H](C)N(C)C2=O` [Example 1a-21, (3S,4S)-4-(1,9-Difluoro-10,11-dihydro-5H-dibenzo[a,d][7]annulen-5-yl)-9-hydroxy-6-methoxy-2,3-dimethyl-3,4-dihydro-2H-pyrazino[1,2-c]pyrimidine-1,8-dione], for which the IC50 stood at 15 nM. Consider `CSc1nc(=O)c(O)c2n1[C@@H](C(c1ccccc1)c1ccccc1)CN(C(C)C)C2=O` [Ia-23, (4S)-4-Benzhydryl-9-hydroxy-2-isopropyl-6-methylsulfanyl-3,4-dihydropyrazino[1,2-c]pyrimidine-1,8-dione], for which the IC50 was determined as 36 nM.

Turning to `CSc1nc(=O)c(O)c2n1[C@@H](C1c3ccccc3CCc3ccccc31)CN(C(C)C)C2=O` [Ia-30, (4S)-4-(6,11-Dihydro-5H-dibenzo[2,1-b:1′,2′-e][7]annulen-11-yl)-9-hydroxy-2-isopropyl-6-methylsulfanyl-3,4-dihydropyrazino[1,2-c]pyrimidine-1,8-dione], the IC50 stood at 17 nM. Consider `CC(C)N1C[C@H](C(c2ccccc2)c2ccccc2)n2c(CN)nc(=O)c(O)c2C1=O` [Ia-54, (4S)-6-(Aminomethyl)-4-benzhydryl-9-hydroxy-2-isopropyl-3,4-dihydropyrazino[1,2-c]pyrimidine-1,8-dione], for which the IC50 worked out at 931 nM. Still for that read-out and setting: under `CC(C)N1C[C@H](C(c2ccccc2)c2ccccc2)n2c(CO)nc(=O)c(O)c2C1=O` [Ia-74, (4S)-4-Benzhydryl-9-hydroxy-6-(hydroxymethyl)-2-isopropyl-3,4-dihydropyrazino[1,2-c]pyrimidine-1,8-dione] stands 125 nM. Still for that read-out and setting: under `CC(C)N1C[C@H](C(c2ccccc2)c2ccccc2)n2c(-c3ccccc3)nc(=O)c(O)c2C1=O` [Ia-42, (4S)-4-benzhydryl-9-hydroxy-2-isopropyl-6-phenyl-3,4-dihydropyrazino[1,2-c]pyrimidine-1,8-dione] stands 126 nM; under `COC(=O)Nc1nc(=O)c(O)c2n1[C@@H](C(c1ccccc1)c1ccccc1)CN(C(C)C)C2=O` [Ia-56, Methyl N-[(4S)-4-benzhydryl-9-hydroxy-2-isopropyl-1,8-dioxo-3,4-dihydropyrazino[1,2-c]pyrimidin-6-yl]carbamate], 200 nM; under `CC(C)N1C[C@H](C(c2ccccc2)c2ccccc2)n2cnc(=O)c(O)c2C1=O` [Ia-27, (4S)-4-Benzhydryl-9-hydroxy-2-isopropyl-3,4-dihydropyrazino[1,2-c]pyrimidine-1,8-dione], 232 nM. Same read-out and setting: as for `CC(C)N1C[C@H](C(c2ccccc2)c2ccccc2)n2c([S+](C)[O-])nc(=O)c(O)c2C1=O` (stereo partly drawn) [Ia-26, (4S)-4-Benzhydryl-9-hydroxy-2-isopropyl-6-methylsulfinyl-3,4-dihydropyrazino[1,2-c]pyrimidine-1,8-dione], the figure is 127 nM; as for `CC(C)N1C[C@H](C(c2ccccc2)c2ccccc2)n2c(S(C)(=O)=O)nc(=O)c(O)c2C1=O` [Ia-38, (4S)-4-Benzhydryl-9-hydroxy-2-isopropyl-6-methylsulfonyl-3,4-dihydropyrazino[1,2-c]pyrimidine-1,8-dione], 110 nM; as for `CC(C)N1C[C@H](C(c2ccccc2)c2ccccc2)n2c(N)nc(=O)c(O)c2C1=O` [Example 1a-3, (4S)-6-Amino-4-benzhydryl-9-hydroxy-2-isopropyl-3,4-dihydropyrazino[1,2-c]pyrimidine-1,8-dione], above 50000 nM.

In the case of `CC(C)N1C[C@H](C(c2ccccc2)c2ccccc2)n2c(S)nc(=O)c(O)c2C1=O` [Ia-28, (4S)-4-benzhydryl-9-hydroxy-2-isopropyl-6-sulfanyl-3,4-dihydropyrazino[1,2-c]pyrimidine-1,8-dione], the IC50 was determined as 61 nM. Same read-out and setting: under `CC(C)N1C[C@H](C(c2ccccc2)c2ccccc2)n2c(O)nc(=O)c(O)c2C1=O` [Example 1a-6, (4S)-4-Benzhydryl-6,9-dihydroxy-2-isopropyl-3,4-dihydropyrazino[1,2-c]pyrimidine-1,8-dione] stands 218 nM; under `CC(C)N1C[C@H](C2c3ccccc3CCc3ccccc32)n2c(NCC(F)(F)F)nc(=O)c(O)c2C1=O` [Ia-34, (4S)-4-(6,11-Dihydro-5H-dibenzo[2,1-b:1′,2′-e][7]annulen-11-yl)-9-hydroxy-2-isopropyl-6-(2,2,2-trifluoroethylamino)-3,4-dihydropyrazino[1,2-c]pyrimidine-1,8-dione], 50 nM. The same measure, in the same setting: as for `CC(=O)NCc1nc(=O)c(O)c2n1[C@@H](C(c1ccccc1)c1ccccc1)CN(C(C)C)C2=O` [Ia-55, N-[[(4S)-4-Benzhydryl-9-hydroxy-2-isopropyl-1,8-dioxo-3,4-dihydropyrazino[1,2-c]pyrimidin-6-yl]methyl]acetamide], the figure is 473 nM; as for `CC(C)N1C[C@H](C(c2ccccc2)c2ccccc2)n2c(OCc3ccccc3)nc(=O)c(O)c2C1=O` [Example 1a-13, (4S)-4-Benzhydryl-6-benzyloxy-9-hydroxy-2-isopropyl-3,4-dihydropyrazino[1,2-c]pyrimidine-1,8-dione], 8320 nM; as for `CCN1CC(C(c2ccccc2)c2ccccc2)n2c(OC)nc(=O)c(O)c2C1=O` (centres unmarked) [Ia-64, 4-Benzhydryl-2-ethyl-9-hydroxy-6-methoxy-3,4-dihydropyrazino[1,2-c]pyrimidine-1,8-dione], 50 nM. Still for that read-out and setting: as for `CC(C)N1C[C@H](C(c2ccccc2)c2ccccc2)n2c(NS(C)(=O)=O)nc(=O)c(O)c2C1=O` [Example 1a-17, N-[(4S)-4-benzhydryl-9-hydroxy-2-isopropyl-1,8-dioxo-3,4-dihydropyrazino[1,2-c]-pyrimidin-6-yl]methanesulfonamide], the figure is 1670 nM; as for `COc1nc(=O)c(O)c2n1[C@@H](C1c3ccccc3CCc3ccccc31)CN(C(C)C)C2=O` [Example 1a-8, (4S)-4-(10,11-Dihydro-5H-dibenzo[a,d][7]annulen-5-yl)-9-hydroxy-6-methoxy-2-(propan-2-yl)-3,4-dihydro-2H-pyrazino[1,2-c]pyrimidine-1,8-dione], 6 nM. Turning to `CCOc1nc(=O)c(O)c2n1[C@@H](C1c3ccccc3CCc3ccccc31)CN(C(C)C)C2=O` [Example 1a-12, (4S)-4-(10,11-Dihydro-5H-dibenzo[a,d][7]annulen-5-yl)-6-ethoxy-9-hydroxy-2-(propan-2-yl)-3,4-dihydro-2H-pyrazino[1,2-c]pyrimidine-1,8-dione], the IC50 amounted to 24 nM. On the same count and under the same terms, under `CCCCOc1nc(=O)c(O)c2n1[C@@H](C(c1ccccc1)c1ccccc1)CN(C(C)C)C2=O` [Example 1a-15, (4S)-4-Benzhydryl-6-butoxy-9-hydroxy-2-isopropyl-3,4-dihydropyrazino[1,2-c]pyrimidine-1,8-dione] stands 15300 nM; under `CC(C)N1C[C@H](C(c2ccccc2)c2ccccc2)n2c(NC(C)C(F)(F)F)nc(=O)c(O)c2C1=O` (stereo partly drawn) [Ia-37, (4S)-4-Benzhydryl-9-hydroxy-2-isopropyl-6-[(2,2,2-trifluoro-1-methyl-ethyl)amino]-3,4-dihydropyrazino[1,2-c]pyrimidine-1,8-dione], 516 nM. The same measure, in the same setting: under `CCOc1nc(=O)c(O)c2n1[C@@H](C(c1ccccc1)c1ccccc1)CN(C(C)C)C2=O` [Example 1a-7, (4S)-4-Benzhydryl-6-ethoxy-9-hydroxy-2-isopropyl-3,4-dihydropyrazino[1,2-c]-pyrimidine-1,8-dione] stands 69 nM; under `CC(C)N1C[C@H](C2c3ccccc3CCc3ccccc32)n2c(O)nc(=O)c(O)c2C1=O` [Example 1a-10, (4S)-4-(10,11-Dihydro-5H-dibenzo[a,d][7]annulen-5-yl)-6,9-dihydroxy-2-(propan-2-yl)-3,4-dihydro-2H-pyrazino[1,2-c]pyrimidine-1,8-dione], 98 nM; under `CC(C)N1CC(C2c3ccccc3CCc3ccccc32)n2c(CO)nc(=O)c(O)c2C1=O` (centres unmarked) [Ia-48, 4-(6,11-Dihydro-5H-dibenzo[2,1-b:1′,2′-e][7]annulen-11-yl)-9-hydroxy-6-(hydroxymethyl)-2-isopropyl-3,4-dihydropyrazino[1,2-c]pyrimidine-1,8-dione], 20 nM. In the case of `COc1nc(=O)c(O)c2n1[C@@H](C(c1ccc(F)cc1)c1ccc(F)cc1)CN(C(C)C)C2=O` [Ia-71, (4S)-4-[Bis(4-fluorophenyl)methyl]-9-hydroxy-2-isopropyl-6-methoxy-3,4-dihydropyrazino[1,2-c]pyrimidine-1,8-dione], the IC50 was found to be 47 nM.

Regarding `CC(C)N1C[C@H](C(c2ccccc2)c2ccccc2)n2c(C(N)=O)nc(=O)c(O)c2C1=O` [Ia-52, (4S)-4-Benzhydryl-9-hydroxy-2-isopropyl-1,8-dioxo-3,4-dihydropyrazino[1,2-c]pyrimidine-6-carboxamide], the IC50 is 93 nM.

On to `CC(C)N1C[C@H](C(c2ccccc2)c2ccccc2)n2c(NCC(F)(F)F)nc(=O)c(O)c2C1=O` [Ia-33, (4S)-4-Benzhydryl-9-hydroxy-2-isopropyl-6-(2,2,2-trifluoroethylamino)-3,4-dihydropyrazino[1,2-c]pyrimidine-1,8-dione], for which the IC50 was determined as 273 nM.

Staying with this experiment, now noted: A549, isomers identified by X-ray analysis, read-out: IC50.
Take `COc1nc(=O)c(O)c2n1[C@@H]([C@H]1c3ccccc3CSc3ccccc31)CN(C(C)C)C2=O` (single isomer, unassigned) [Example 14]: the IC50 was 2 nM.
